From patent publication US20260176320A1, “MODULATORS OF G-PROTEIN COUPLED RECEPTORS” (priority 2018, published 2026)
Like-named read-outs stand apart in the source and are kept apart here.

What was measured:
Type in all cases: cell-based
[1] = target: T1, GLP-1R (Homo sapiens, UniProt P43220); experiment: PathHunter β-arrestin assay
Method in brief: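 Agonist concentration–response (22 points, 2-fold steps, duplicates) was run on cells plated the previous day in BSA-supplemented (0.2%) medium. Stimulation lasted 90 min at 37 °C, followed by a 3 h dark incubation with detection reagent at room temperature and a luminescence read.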

[2] = target: T2, GIP-R (Homo sapiens, UniProt P48546); experiment: HitHunter cAMP assay (GIP-R); details: cAMP; for Emax: read-out: (Emax) GIP-R
T2 sequence (P48546 22-466): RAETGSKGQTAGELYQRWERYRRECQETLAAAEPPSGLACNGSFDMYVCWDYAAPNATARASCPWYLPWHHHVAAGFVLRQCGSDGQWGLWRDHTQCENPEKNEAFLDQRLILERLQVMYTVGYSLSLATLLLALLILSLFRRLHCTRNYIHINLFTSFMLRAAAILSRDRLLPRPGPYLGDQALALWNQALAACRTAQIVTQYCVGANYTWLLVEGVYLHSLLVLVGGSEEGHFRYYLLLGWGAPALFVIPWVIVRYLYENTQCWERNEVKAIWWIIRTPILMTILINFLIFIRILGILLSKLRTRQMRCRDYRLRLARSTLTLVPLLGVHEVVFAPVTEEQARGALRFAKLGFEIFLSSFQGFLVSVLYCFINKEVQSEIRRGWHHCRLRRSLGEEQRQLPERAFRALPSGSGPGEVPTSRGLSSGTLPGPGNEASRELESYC
Method in brief: (§1)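 Cells were resuspended in HBSS plus HEPES, IBMX (625 μM) and BSA, then dispensed with antibody at 10,000 per well. Agonists followed as 22-point twofold series, 30 min at room temperature. Antibody reagent and detection steps ran 1 h and overnight in the dark before luminescence.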

[3] = target: T1, GLP-1R; experiment: HitHunter cAMP assay (GLP-1R); details: cAMP; for Emax: read-out: (Emax) GLP-1R
Method in brief: as §1

T1 sequence (P43220 24-463): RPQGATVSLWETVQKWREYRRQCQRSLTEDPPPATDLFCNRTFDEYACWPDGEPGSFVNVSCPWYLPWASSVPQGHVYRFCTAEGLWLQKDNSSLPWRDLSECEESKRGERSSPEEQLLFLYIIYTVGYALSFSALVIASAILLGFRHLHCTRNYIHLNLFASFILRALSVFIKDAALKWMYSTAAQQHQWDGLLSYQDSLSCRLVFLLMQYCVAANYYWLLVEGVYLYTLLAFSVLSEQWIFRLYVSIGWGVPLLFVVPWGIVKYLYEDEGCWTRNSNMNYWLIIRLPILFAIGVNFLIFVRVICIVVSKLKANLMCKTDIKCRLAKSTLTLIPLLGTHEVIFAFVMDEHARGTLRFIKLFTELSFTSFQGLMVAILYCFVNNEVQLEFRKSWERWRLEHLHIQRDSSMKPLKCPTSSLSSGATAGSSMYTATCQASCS

| Structure (SMILES) | EC50 [1] [nM] | EC50 ([2]; EC50 GIP-R/nM, Table 3) [nM] | EC50 ([2]; EC50 GIP-R/nM, Table 3A) [nM] | Emax ([2]; Table 3) [%] | Emax ([2]; Table 3A) [%] | EC50 ([3]; EC50 GLP-1R/nM, Table 3) [nM] | EC50 ([3]; EC50 GLP-1R/nM, Table 3A) [nM] | Emax ([3]; Table 3) [%] | Emax ([3]; Table 3A) [%] | EC50 ([1]; PathHunter β-arrestin assay, read-out: β-arrestin activity EC50) [nM] | EC50 ([2]; Table 3A, read-out: EC50 GIP-R/nM) [nM] | EC50 ([3]; Table 3A, read-out: EC50 GLP-1R/nM) [nM] |
| --- | --- | --- | --- | --- | --- | --- | --- | --- | --- | --- | --- | --- |
| CC[C@H](C)[C@H](NC(=O)[C@H](CO)NC(=O)[C@H](Cc1ccc(O)cc1)NC(=O)[C@H](CC(=O)O)NC(=O)[C@H](CO)NC(=O)[C@@H](NC(=O)[C@H](Cc1ccccc1)NC(=O)[C@@H](NC(=O)CNC(=O)[C@H](CCC(=O)O)NC(=O)CSCC(=O)NCCN1C(=O)c2cccnc2C1=O)[C@@H](C)O)[C@@H](C)O)C(=O)N[C@@H](Cc1ccc(O)cc1)C(=O)N[C@@H](CC(C)C)C(=O)N[C@@H](CC(=O)O)C(=O)N[C@@H](CCCCN)C(=O)N[C@@H](CCC(N)=O)C(=O)N[C@@H](C)C(=O)N[C@@H](C)C(=O)NC(C)(C)C(=O)N[C@@H](CCC(=O)O)C(=O)N[C@@H](Cc1ccccc1)C(=O)N[C@H](C(=O)N[C@@H](CC(N)=O)C(=O)N[C@@H](Cc1c[nH]c2ccccc12)C(=O)N[C@@H](CC(C)C)C(=O)N[C@@H](CC(C)C)C(=O)N[C@@H](C)C(=O)NCC(=O)NCC(=O)N1CCC[C@H]1C(=O)N[C@@H](CO)C(=O)N[C@@H](CO)C(=O)NCC(=O)N[C@@H](C)C(=O)N1CCC[C@H]1C(=O)N1CCC[C@H]1C(=O)N1CCC[C@H]1C(=O)N[C@@H](CO)C(=O)N[C@@H](CCCCN)C(N)=O)C(C)C [Compound 160] | > 1000 | 0.1 to 1 | 0.1 to 1 | 109 to 113 | 109 to 113 | 1 to 10 | 1 to 10 | 85 to 95 | 85 to 95 | – | – | – |
| CC[C@H](C)[C@H](NC(=O)[C@H](CO)NC(=O)[C@H](Cc1ccc(O)cc1)NC(=O)[C@H](CC(=O)O)NC(=O)[C@H](CO)NC(=O)[C@@H](NC(=O)[C@H](Cc1ccccc1)NC(=O)[C@@H](NC(=O)CNC(=O)[C@H](CCC(=O)O)NC(=O)CSCC(=O)NCCN1Cc2ccccc2C1=O)[C@@H](C)O)[C@@H](C)O)C(=O)N[C@@H](Cc1ccc(O)cc1)C(=O)N[C@@H](CC(C)C)C(=O)N[C@@H](CC(=O)O)C(=O)N[C@@H](CCCCN)C(=O)N[C@@H](CCC(N)=O)C(=O)N[C@@H](C)C(=O)N[C@@H](C)C(=O)NC(C)(C)C(=O)N[C@@H](CCC(=O)O)C(=O)N[C@@H](Cc1ccccc1)C(=O)N[C@H](C(=O)N[C@@H](CC(N)=O)C(=O)N[C@@H](Cc1c[nH]c2ccccc12)C(=O)N[C@@H](CC(C)C)C(=O)N[C@@H](CC(C)C)C(=O)N[C@@H](C)C(=O)NCC(=O)NCC(=O)N1CCC[C@H]1C(=O)N[C@@H](CO)C(=O)N[C@@H](CO)C(=O)NCC(=O)N[C@@H](C)C(=O)N1CCC[C@H]1C(=O)N1CCC[C@H]1C(=O)N1CCC[C@H]1C(=O)N[C@@H](CO)C(=O)N[C@@H](CCCCN)C(N)=O)C(C)C [Compound 152] | > 1000 | 1 to 10 | 1 to 10 | 103 | 103 | 10 to 100 | 10 to 100 | 85 | 85 | – | – | – |
| CCCCCCCCCCCCCCCC(=O)N[C@@H](CCC(=O)NCCCC[C@H](NC(=O)[C@H](CO)NC(=O)[C@@H]1CCCN1C(=O)[C@@H]1CCCN1C(=O)[C@@H]1CCCN1C(=O)[C@H](C)NC(=O)CNC(=O)[C@H](CO)NC(=O)[C@H](CO)NC(=O)[C@@H]1CCCN1C(=O)CNC(=O)CNC(=O)[C@H](C)NC(=O)[C@H](CC(C)C)NC(=O)[C@H](CC(C)C)NC(=O)[C@H](Cc1c[nH]c2ccccc12)NC(=O)[C@H](CC(N)=O)NC(=O)[C@@H](NC(=O)[C@H](Cc1ccccc1)NC(=O)[C@H](CCC(=O)O)NC(=O)C(C)(C)NC(=O)[C@H](C)NC(=O)[C@H](C)NC(=O)[C@H](CCC(N)=O)NC(=O)[C@H](CCCCN)NC(=O)[C@H](CC(=O)O)NC(=O)[C@H](CC(C)C)NC(=O)[C@H](Cc1ccc(O)cc1)NC(=O)[C@@H](NC(=O)[C@H](CO)NC(=O)[C@H](Cc1ccc(O)cc1)NC(=O)[C@H](CC(=O)O)NC(=O)[C@H](CO)NC(=O)[C@@H](NC(=O)[C@H](Cc1ccccc1)NC(=O)[C@@H](NC(=O)CNC(=O)[C@H](CCC(=O)O)NC(=O)CSCC(=O)NCCN1C(=O)[C@H]2CC[C@H]2C1=O)[C@@H](C)O)[C@@H](C)O)[C@@H](C)CC)C(C)C)C(N)=O)C(=O)O [Compound 97] | > 1000 | 0.1 to 1 | 0.1 to 1 | 93 | 93 | 1 to 10 | 1 to 10 | 99 | 99 | – | – | – |
| CCCCCCCCCCCCCCCC(=O)N[C@@H](CCC(=O)NCCCC[C@H](NC(=O)[C@H](CO)NC(=O)[C@@H]1CCCN1C(=O)[C@@H]1CCCN1C(=O)[C@@H]1CCCN1C(=O)[C@H](C)NC(=O)CNC(=O)[C@H](CO)NC(=O)[C@H](CO)NC(=O)[C@@H]1CCCN1C(=O)CNC(=O)CNC(=O)[C@H](C)NC(=O)[C@H](CC(C)C)NC(=O)[C@H](CC(C)C)NC(=O)[C@H](Cc1c[nH]c2ccccc12)NC(=O)[C@H](CC(N)=O)NC(=O)[C@@H](NC(=O)[C@H](Cc1ccccc1)NC(=O)[C@H](CCC(=O)O)NC(=O)C(C)(C)NC(=O)[C@H](C)NC(=O)[C@H](C)NC(=O)[C@H](CCC(N)=O)NC(=O)[C@H](CCCCN)NC(=O)[C@H](CC(=O)O)NC(=O)[C@H](CC(C)C)NC(=O)[C@H](Cc1ccc(O)cc1)NC(=O)[C@@H](NC(=O)[C@H](CO)NC(=O)[C@H](Cc1ccc(O)cc1)NC(=O)[C@H](CC(=O)O)NC(=O)[C@H](CO)NC(=O)[C@@H](NC(=O)[C@H](Cc1ccccc1)NC(=O)[C@@H](NC(=O)CNC(=O)[C@H](CCC(=O)O)NC(=O)CSCC(=O)NCCN1C(=O)SC(C)(C)C1=O)[C@@H](C)O)[C@@H](C)O)[C@@H](C)CC)C(C)C)C(N)=O)C(=O)O [Compound 94] | > 1000 | 1 to 10 | 1 to 10 | 46 | 46 | 1 to 10 | 1 to 10 | 89 | 89 | – | – | – |
| CCCCCCCCCCCCCCCC(=O)N[C@@H](CCC(=O)NCCCC[C@H](NC(=O)[C@H](CO)NC(=O)[C@@H]1CCCN1C(=O)[C@@H]1CCCN1C(=O)[C@@H]1CCCN1C(=O)[C@H](C)NC(=O)CNC(=O)[C@H](CO)NC(=O)[C@H](CO)NC(=O)[C@@H]1CCCN1C(=O)CNC(=O)CNC(=O)[C@H](C)NC(=O)[C@H](CC(C)C)NC(=O)[C@H](CC(C)C)NC(=O)[C@H](Cc1c[nH]c2ccccc12)NC(=O)[C@H](CC(N)=O)NC(=O)[C@@H](NC(=O)[C@H](Cc1ccccc1)NC(=O)[C@H](CCC(=O)O)NC(=O)C(C)(C)NC(=O)[C@H](C)NC(=O)[C@H](C)NC(=O)[C@H](CCC(N)=O)NC(=O)[C@H](CCCCN)NC(=O)[C@H](CC(=O)O)NC(=O)[C@H](CC(C)C)NC(=O)[C@H](Cc1ccc(O)cc1)NC(=O)[C@@H](NC(=O)[C@H](CO)NC(=O)[C@H](Cc1ccc(O)cc1)NC(=O)[C@H](CC(=O)O)NC(=O)[C@H](CO)NC(=O)[C@@H](NC(=O)[C@H](Cc1ccccc1)NC(=O)[C@@H](NC(=O)CNC(=O)[C@H](CCC(=O)O)NC(=O)CCCC(=O)NCCN1CCOCC1=O)[C@@H](C)O)[C@@H](C)O)[C@@H](C)CC)C(C)C)C(N)=O)C(=O)O [Compound 243] | – | – | – | – | 20 | – | – | – | 103 | > 1000 | 10 to 100 | < 0.1 |
| CC[C@H](C)[C@H](NC(=O)[C@H](CO)NC(=O)[C@H](Cc1ccc(O)cc1)NC(=O)[C@H](CC(=O)O)NC(=O)[C@H](CO)NC(=O)[C@@H](NC(=O)[C@H](Cc1ccccc1)NC(=O)[C@@H](NC(=O)CNC(=O)[C@H](CCC(=O)O)NC(=O)CSCC(=O)NCCN1C(=O)CCCC1=O)[C@@H](C)O)[C@@H](C)O)C(=O)N[C@@H](Cc1ccc(O)cc1)C(=O)N[C@@H](CC(C)C)C(=O)N[C@@H](CC(=O)O)C(=O)N[C@@H](CCCCN)C(=O)N[C@@H](CCC(N)=O)C(=O)N[C@@H](C)C(=O)N[C@@H](C)C(=O)NC(C)(C)C(=O)N[C@@H](CCC(=O)O)C(=O)N[C@@H](Cc1ccccc1)C(=O)N[C@H](C(=O)N[C@@H](CC(N)=O)C(=O)N[C@@H](Cc1c[nH]c2ccccc12)C(=O)N[C@@H](CC(C)C)C(=O)N[C@@H](CC(C)C)C(=O)N[C@@H](C)C(=O)NCC(=O)NCC(=O)N1CCC[C@H]1C(=O)N[C@@H](CO)C(=O)N[C@@H](CO)C(=O)NCC(=O)N[C@@H](C)C(=O)N1CCC[C@H]1C(=O)N1CCC[C@H]1C(=O)N1CCC[C@H]1C(=O)N[C@@H](CO)C(=O)N[C@@H](CCCCN)C(N)=O)C(C)C [Compound 138] | > 1000 | 1 to 10 | 1 to 10 | 81 | 81 | 1 to 10 | 1 to 10 | 87 | 87 | – | – | – |
